Results: US10188656B2, “Methods of treatment of malignancies” (Agios Pharmaceuticals, Inc., priority 2015, dated 2019)

Experiments:
Type in all cases: in vivo, human
[1] = system: 2-HG plasma levels; assay: Phase 1/2 study: pharmacodynamic response, 2-HG plasma levels; conditions: most subjects with R140Q mutation, all doses; sustained reduction by Day 1 of Cycle 2
Protocol: Subjects in the dose escalation phase and Part 1 Expansion also will undergo PK/PD assessments over a 10-hour period on C1D15, C2D1, and C4D1. […] These subjects will have urine collected for PK/PD evaluation at screening; prior to dosing on C1D15, C2D1 and Day 1 of all cycles thereafter; and at the End of Treatment visit. Available bone marrow biopsy samples also will be assessed for 2-HG and α-KG levels.
The starting dose of COMPOUND 1 recommended for evaluation is 100 mg QD. This is based on the safety, PK, pharmacodynamics and clinical activity of COMPOUND 1 observed to date in AG221-C-001. […] Thus a dose of 100 mg should adequately achieve inhibition of 2-HG in subjects with either R140Q or R172K mutation.
Serial blood sampling for determination of concentration-time profiles of COMPOUND 1 and its metabolite (6-(6-(trifluoromethyl)pyridin-2-yl)-N2-(2-(trifluoromethyl)pyridin-4-yl)-1,3,5-triazine-2,4-diamine). Urine sampling for determination of concentrations of COMPOUND 1 and its metabolite (6-(6-(trifluoromethyl)pyridin-2-yl)-N2-(2-(trifluoromethyl)pyridin-4-yl)-1,3,5-triazine-2,4-diamine) (dose escalation and Part 1 expansion subjects only). Blood and bone marrow sampling for determination of 2-HG and α-KG levels.

[2] = Phase 1/2 study: safety (AEs, NCI CTCAE v4.03); conditions: 100 mg, including ≥Grade 3
From the text: Monitoring of AEs, including determination of DLTs, serious adverse events (SAEs), and AEs leading to discontinuation; safety laboratory parameters; physical examination findings; vital signs; 12-lead ECGs; LVEF; and ECOG PS.
The severity of AEs will be assessed by the NCI CTCAE, Version 4.03.

[3] = system: advanced hematologic malignancies with an IDH2 mutation; assay: Example 2: NRAS mutation status at screening versus COMPOUND 1 response (next generation sequencing, Fisher's exact test)
Protocol: A subset of the clinical samples from the trial described in Example 1 were analyzed at screening. Sample types included bone marrow, peripheral blood and mononuclear cells isolated from bone marrow or peripheral blood. DNAs were extracted from these samples and sequenced at Foundation Medicine (see http://foundationone.com/learn.php) using next generation sequencing technique.
A total of 60 genes were identified to carry at least one mutation in the analyzed set (including IDH2 gene). Fisher's exact test was conducted to evaluate the association of somatic mutations with clinical response (responders include CR, CRp, CRi and PR, indicated as +, while none-responders include SD and PD, indicated as − in Table 9). The P-values were adjusted by multiple-test correction.
Mutation status positive (+) means any known mutation(s) in NRAS, and negative (−) means no mutation in NRAS was present.
Positive response status (+) includes CR, mCR and PR and negative response status (−) includes stable disease (SD) and pregressive disease (PD).

[4] = system: rrAML with an IDH2 mutation; assay: Example 5: FoundationOne Heme panel co-mutations versus response to COMPOUND 1 in rrAML patients
Protocol: FoundationOne Heme panel analysis was performed on 100 screening samples from rrAML patients in the trial described in Example 1. Sample types included peripheral blood and bone marrow.
While rare, co-occurring mutations in TET2 (5 patients) and IDH1 (4 patients) were also observed in this cohort. Mechanistically, mutations in these genes may counteract the efficacy of COMPOUND 1; however, presence of either of these mutated genes was not associated with significant decrease in ORR or complete response (CR) (Table 10).
To further investigate the association between NRAS mutations and ORR to COMPOUND 1, a more detailed analysis of individual mutation sites was performed. NRAS mutations at G12, G13, and Q61 are the most highly characterized sites known to result in constitutive RAS signaling, see Prior I A, Lewis P D, Mattos C. A comprehensive survey of Ras mutations in cancer, Cancer Res. 2012; 72(10):2457-67. When mutations at these sites were analyzed versus ORR to COMPOUND 1, the observed decrease in ORR became statistically significant (p=0.002, see, FIG. 9A and Table 11). Table 11 provides a contingency table indicating statistical significance of lower overall response rate seen in patients presenting with an NRAS co-mutation.

[5] = rrAML, co-occurring ASXL1 mutation
[6] = rrAML, co-occurring ATM mutation
[7] = rrAML, co-occurring BCOR mutation
[8] = rrAML, co-occurring BCORL1 mutation
[9] = rrAML, co-occurring CBL mutation
[10] = rrAML, co-occurring CEBPA mutation
[11] = rrAML, co-occurring CUX1 mutation
[12] = rrAML, co-occurring DNMT3A mutation
[13] = rrAML, co-occurring ETV6 mutation
[14] = rrAML, co-occurring EZH2 mutation
[15] = rrAML, co-occurring FLT3 mutation
[16] = rrAML, co-occurring GATA2 mutation
[17] = rrAML, co-occurring IDH1 mutation
[18] = rrAML, co-occurring JAK2 mutation
[19] = rrAML, co-occurring KMT2A mutation
[20] = rrAML, co-occurring KRAS mutation
[21] = rrAML, co-occurring NPM1 mutation
[22] = rrAML, co-occurring NRAS mutation
[23] = rrAML, co-occurring PHF6 mutation
[24] = rrAML, co-occurring PTPN11 mutation
[25] = rrAML, co-occurring RUNX1 mutation
[26] = rrAML, co-occurring SETBP1 mutation
[27] = rrAML, co-occurring SF3B1 mutation
[28] = rrAML, co-occurring SRSF2 mutation
[29] = rrAML, co-occurring STAG2 mutation
[30] = rrAML, co-occurring TET2 mutation
[31] = rrAML, co-occurring TP53 mutation
[32] = rrAML, co-occurring U2AF1 mutation
[33] = rrAML, co-occurring WT1 mutation

For CC(C)(O)CNc1nc(Nc2ccnc(C(F)(F)F)c2)nc(-c2cccc(C(F)(F)F)n2)n1 [COMPOUND 1, 2-methyl-1-[(4-[6-(trifluoromethyl)pyridin-2-yl]-6-{[2-(trifluoromethyl)pyridin-4-yl]amino}-1,3,5-triazin-2-yl)amino]propan-2-ol], the “inhibition of 2-HG plasma levels” value [1] was “up to 98%”, the safety profile [2] was “consistent with that of lower doses” and the number of patients ([3]; response status +, NRAS mutation +) was 2. It also gave a number of patients ([3]; response status +, NRAS mutation −) of 55, a number of patients ([3]; response status − (SD, PD), NRAS mutation +) of 21 and a number of patients ([3]; response status − (SD, PD), NRAS mutation −) of 40. The “number of patients, No Response” value ([4]; NRAS mt (G12, G13, Q61)) was 13, the “number of patients, Response” value ([4]; NRAS mt (G12, G13, Q61)) was 1 and the “number of patients, No Response” value ([4]; NRAS wt) was 37. For the same compound, the “number of patients, Response” value ([4]; NRAS wt) was 40, the ORR ([4]; patients with the least (≤3) co-occurring mutations) was 69.2% and the ORR ([4]; patients with the most (≥6) co-occurring mutations) was 23.3%. The CR [4, 5] was 0.269, the “CR, OR” value [4, 5] was 0.583 and the ORR [4, 5] was 0.385. The “ORR, OR” value [4, 5] was 0.784, the ORR ([4]; rrAML, co-occurring ASXL1 mutation (text)) was 39% and the CR [4, 6] was 0.500. The “CR, OR” value [4, 6] was 1.721, the ORR [4, 6] was 0.500 and the “ORR, OR” value [4, 6] was 1.306. The CR [4, 7] was 0.308, the “CR, OR” value [4, 7] was 0.743 and the ORR [4, 7] was 0.385. For the same compound, the “ORR, OR” value [4, 7] was 0.800, the CR [4, 8] was 0.000 and the “CR, OR” value [4, 8] was 0.334. The ORR [4, 8] was 0.000, the “ORR, OR” value [4, 8] was 0.254 and the CR [4, 9] was 0.333. For the same compound, the “CR, OR” value [4, 9] was 0.853, the ORR [4, 9] was 0.333 and the “ORR, OR” value [4, 9] was 0.646. For the same compound, the CR [4, 10] was 0.167, the “CR, OR” value [4, 10] was 0.331 and the ORR [4, 10] was 0.167. The “ORR, OR” value [4, 10] was 0.250, the CR [4, 11] was 0.500 and the “CR, OR” value [4, 11] was 1.721. The ORR [4, 11] was 0.500, the “ORR, OR” value [4, 11] was 1.306 and the CR [4, 12] was 0.359. The “CR, OR” value [4, 12] was 0.945, the ORR [4, 12] was 0.513 and the “ORR, OR” value [4, 12] was 1.509. For the same compound, the CR [4, 13] was 0.000, the “CR, OR” value [4, 13] was 0.334 and the ORR [4, 13] was 0.500. For the same compound, the “ORR, OR” value [4, 13] was 1.306, the CR [4, 14] was 0.200 and the “CR, OR” value [4, 14] was 0.418. For the same compound, the ORR [4, 14] was 0.200, the “ORR, OR” value [4, 14] was 0.316 and the CR [4, 15] was 0.200. The “CR, OR” value [4, 15] was 0.408, the ORR [4, 15] was 0.200 and the “ORR, OR” value [4, 15] was 0.306. The CR [4, 16] was 0.000, the “CR, OR” value [4, 16] was 0.334 and the ORR [4, 16] was 0.000. The “ORR, OR” value [4, 16] was 0.254, the CR [4, 17] was 0.250 and the “CR, OR” value [4, 17] was 0.563. The ORR [4, 17] was 0.500, the “ORR, OR” value [4, 17] was 1.310 and the CR [4, 18] was 0.000. The “CR, OR” value [4, 18] was 0.182, the ORR [4, 18] was 0.000 and the “ORR, OR” value [4, 18] was 0.138. The CR [4, 19] was 0.286, the “CR, OR” value [4, 19] was 0.662 and the ORR [4, 19] was 0.357. The “ORR, OR” value [4, 19] was 0.703, the CR [4, 20] was 0.200 and the “CR, OR” value [4, 20] was 0.418. For the same compound, the ORR [4, 20] was 0.400, the “ORR, OR” value [4, 20] was 0.864 and the CR [4, 21] was 0.250. For the same compound, the “CR, OR” value [4, 21] was 0.548, the ORR [4, 21] was 0.417 and the “ORR, OR” value [4, 21] was 0.924. For the same compound, the CR [4, 22] was 0.063, the “CR, OR” value [4, 22] was 0.099 and the ORR [4, 22] was 0.188. For the same compound, the “ORR, OR” value [4, 22] was 0.270, the ORR ([4]; rrAML, co-occurring NRAS mutation (text)) was 19% and the CR [4, 23] was 0.333. For the same compound, the “CR, OR” value [4, 23] was 0.850, the ORR [4, 23] was 0.500 and the “ORR, OR” value [4, 23] was 1.314. The CR [4, 24] was 0.000, the “CR, OR” value [4, 24] was 0.148 and the ORR [4, 24] was 0.000. For the same compound, the “ORR, OR” value [4, 24] was 0.112, the CR [4, 25] was 0.217 and the “CR, OR” value [4, 25] was 0.429. The ORR [4, 25] was 0.261, the “ORR, OR” value [4, 25] was 0.411 and the ORR ([4]; rrAML, co-occurring RUNX1 mutation (text)) was 26%. The CR [4, 26] was 0.000, the “CR, OR” value [4, 26] was 0.237 and the ORR [4, 26] was 0.000. For the same compound, the “ORR, OR” value [4, 26] was 0.180, the CR [4, 27] was 0.000 and the “CR, OR” value [4, 27] was 0.237. The ORR [4, 27] was 0.000, the “ORR, OR” value [4, 27] was 0.180 and the CR [4, 28] was 0.293. The “CR, OR” value [4, 28] was 0.637, the ORR [4, 28] was 0.341 and the “ORR, OR” value [4, 28] was 0.598. The ORR ([4]; rrAML, co-occurring SRSF2 mutation (text)) was 34%, the CR [4, 29] was 0.455 and the “CR, OR” value [4, 29] was 1.462. The ORR [4, 29] was 0.455, the “ORR, OR” value [4, 29] was 1.091 and the CR [4, 30] was 0.333. The “CR, OR” value [4, 30] was 0.853, the ORR [4, 30] was 0.333 and the “ORR, OR” value [4, 30] was 0.646. For the same compound, the CR [4, 31] was 0.000, the “CR, OR” value [4, 31] was 0.334 and the ORR [4, 31] was 0.000. For the same compound, the “ORR, OR” value [4, 31] was 0.254, the CR [4, 32] was 0.500 and the “CR, OR” value [4, 32] was 1.721. For the same compound, the ORR [4, 32] was 1.000, the “ORR, OR” value [4, 32] was 6.678 and the CR [4, 33] was 0.333. The “CR, OR” value [4, 33] was 0.853, the ORR [4, 33] was 0.333 and the “ORR, OR” value [4, 33] was 0.646.
